In ChEMBL document CHEMBL1129941, “AMPA receptor agonists: synthesis, protolytic properties, and pharmacology of 3-isothiazolol bioisosteres of glutamic acid” (J Med Chem, 1997):

Legend:
Rattus norvegicus = species: Rattus norvegicus; test: tissue or blood
Description: Effective concentration evaluated in electrophysiological rat cortical slice model

[1] = molecular target: Glutamate receptor ionotropic, AMPA (Rattus norvegicus, UniProt P19490+P19491+P19492+P19493)
Description: In vitro binding affinity for Ionotropic glutamate receptor AMPA site was determined using [3H]AMPA as radioligand in rat cortex

Mus musculus = test: In vivo convulsant potency after subcutaneous administration in mice; type: functional; conditions: sc

SMILES	EC50 (Rattus norvegicus) [µM]	IC50 [1] [µM]	ED50 (Mus musculus) [µmol/kg]
CC(C)(C)c1onc(O)c1CC(N)C(=O)O (configuration not stated)	34	–	–
CC(C)(C)c1snc(O)c1CC(N)C(=O)O (configuration not stated)	14	0.63	–
NC(Cc1snc(O)c1Br)C(=O)O (configuration not stated)	500	17	–
NC(Cc1cc(O)ns1)C(=O)O (configuration not stated)	370	5.8	–
Cc1snc(O)c1CC(N)C(=O)O (configuration not stated)	15	1.8	130
NC(Cc1cc(O)no1)C(=O)O (configuration not stated)	370	1.5	–
